What all share (assay type): functional
In assay [1] the test system is Lymphocyte. The assay is described as follows: Immunomodulatory activity in concanavalin A-stimulated mouse lymphocytes assessed as proliferative optical density at 0.1 uM after 48 hrs by MTT assay (Rvb=0.80+/-0.02). (In general: Tetrazolium dyes change colour on reduction, which living cells bring about.)
In assay [2] the test system is Lymphocyte. Description: Immunomodulatory activity in LPS-stimulated mouse lymphocytes assessed as proliferative optical density at 1 uM after 48 hrs by MTT assay (Rvb=0.56+/-0.03).
For assay [3], the system named is Lymphocyte. The assay is described as follows: Immunomodulatory activity in LPS-stimulated mouse lymphocytes assessed as proliferative optical density at 10 uM after 48 hrs by MTT assay (Rvb=0.56+/-0.03).
Assay [4] concerns Lymphocyte. Description: Immunomodulatory activity in LPS-stimulated mouse lymphocytes assessed as proliferative optical density at 0.1 uM after 48 hrs by MTT assay (Rvb=0.56+/-0.03).
For assay [5], the system named is Lymphocyte. The assay is described as follows: Immunomodulatory activity in concanavalin A-stimulated mouse lymphocytes assessed as proliferative optical density at 10 uM after 48 hrs by MTT assay (Rvb=0.80+/-0.02).
The subject of assay [6] is Lymphocyte. The assay is described as follows: Immunomodulatory activity in concanavalin A-stimulated mouse lymphocytes assessed as proliferative optical density at 1 uM after 48 hrs by MTT assay (Rvb=0.80+/-0.02).
Assay [7] deals with Lymphocyte. The assay is described as follows: Immunomodulatory activity in concanavalin A-stimulated mouse lymphocytes assessed as proliferative optical density at 1 uM after 48 hrs by MTT assay (Rvb=0.47+/-0.01).
Assay [8] relates to Lymphocyte. The assay is described as follows: Immunomodulatory activity in LPS-stimulated mouse lymphocytes assessed as proliferative optical density at 10 uM after 48 hrs by MTT assay (Rvb=0.45+/-0.01).
For assay [9], the system named is Lymphocyte. The assay is described as follows: Immunomodulatory activity in concanavalin A-stimulated mouse lymphocytes assessed as proliferative optical density at 0.1 uM after 48 hrs by MTT assay (Rvb=0.47+/-0.01).
In assay [10] the test system is Lymphocyte. Description: Immunomodulatory activity in concanavalin A-stimulated mouse lymphocytes assessed as proliferative optical density at 10 uM after 48 hrs by MTT assay (Rvb=0.47+/-0.01).
The test system of assay [11] is Lymphocyte. Description: Immunomodulatory activity in LPS-stimulated mouse lymphocytes assessed as proliferative optical density at 0.1 uM after 48 hrs by MTT assay (Rvb=0.45+/-0.01).
For assay [12], the system named is Lymphocyte. The assay is described as follows: Immunomodulatory activity in LPS-stimulated mouse lymphocytes assessed as proliferative optical density at 1 uM after 48 hrs by MTT assay (Rvb=0.45+/-0.01).

With `CC(C)[C@H]1CC[C@@]2(C)[C@H](CC[C@]2(O)CO)[C@@H]1CO[C@@H]1O[C@H](CO)[C@@H](O)[C@H](O)[C@H]1O` [DENDRONOBILOSIDE B], the OD in [1] is 0.68; in [2], 0.51; in [3], 0.57; in [4], 0.54; in [5], 0.71; in [6], 0.68.

Take `C[C@@H]1CC[C@H]2[C@@H]1[C@H]1[C@@H](CC[C@@]2(O)CO[C@@H]2O[C@H](CO)[C@@H](O)[C@H](O)[C@H]2O)[C@@]1(C)CO` [DENDROSIDE A]: the OD in [7] is listed as 0.62; in assay [8], 0.45; in assay [9] it was 0.64; in assay [10] it was 0.5; in assay [11] it was 0.45; in assay [12], 0.52.

Regarding `CC(C)[C@H]1CC[C@]2(C)[C@@H](CO[C@@H]3O[C@H](CO)[C@@H](O)[C@H](O)[C@H]3O)CC[C@@H]2[C@@H]1CO[C@@H]1O[C@H](CO)[C@@H](O)[C@H](O)[C@H]1O` [DENDRONOBILOSIDE A], the OD in [7] was 0.53; in assay [8], 0.56; in [9], 0.46; in assay [10], 0.6; in [11] it was 0.49; in assay [12], 0.5.

The record behind these values is ChEMBL document CHEMBL1155767, “Three new sesquiterpene glycosides from Dendrobium nobile with immunomodulatory activity” (2001).
